Laboratory results as given in BigSolDB 2.1.

O=C1OC(=O)c2cc(Cl)ccc21
solubility (mole fraction)
Conditions	283.15 K	288.15 K	293.15 K	298.15 K	303.15 K	308.15 K	313.15 K	318.15 K	323.15 K	328.15 K
in acetonitrile	0.102	0.121	0.143	0.167	0.194	0.221	0.249	0.277	0.304	0.331
in cyclohexane	0.000482	0.000684	0.000895	0.00109	0.00139	0.00161	0.00203	0.00246	0.00315	0.00399
in methanol	0.0848	0.0944	0.118	0.136	0.167	0.196	0.228	0.266	0.309	0.356
in methyl acetate	0.134	0.163	0.19	0.216	0.241	0.269	0.296	0.33	0.362	0.407
in tert-amyl alcohol	0.00738	0.00942	0.0129	0.0166	0.0219	0.0274	0.0376	0.0489	0.065	0.0823
in tetrachloromethane	0.00888	0.0103	0.0128	0.0142	0.0169	0.0191	0.0212	0.0233	0.0254	0.0274

O=C1OC(=O)c2c(Cl)cccc21
solubility (mole fraction)
Conditions	283.15 K	288.15 K	293.15 K	298.15 K	303.15 K	308.15 K	313.15 K	318.15 K	323.15 K	328.15 K
in acetonitrile	0.0676	0.0793	0.092	0.106	0.123	0.142	0.165	0.193	0.225	0.263
in cyclohexane	0.00042	0.000507	0.000554	0.000764	0.000909	0.00108	0.00136	0.00176	0.00222	0.00277
in methanol	0.0637	0.0698	0.0766	0.09	0.0968	0.104	0.116	0.126	0.144	0.161
in methyl acetate	0.0882	0.0987	0.112	0.123	0.145	0.157	0.176	0.198	0.223	0.252
in tert-amyl alcohol	0.00423	0.00548	0.00677	0.00875	0.0113	0.0125	0.0146	0.0184	0.0228	0.0288
in tetrachloromethane	0.00307	0.004	0.00497	0.00605	0.00729	0.00873	0.0104	0.0125	0.0146	0.0177
